In experiment [1] the target is T1, human H3 receptor (Homo sapiens, UniProt Q9Y5N1).
T1 construct: expressed in transfected cells
The experiment in a line: H3 receptor binding (N-[3H]-α-methylhistamine displacement). Conditions: membranes of SK-N-MC cells expressing cloned human H3 receptor, 0.8 nM N-[3H]-α-methylhistamine, 60 min at 25° C.

In the next experiment the target is T2, Rat SERT (Rattus norvegicus, UniProt P31652).
T2 construct: A rat brain without cerebellum (Zivic Laboratories, Inc.—Pittsburgh, Pa.) was homogenized; tissue Zivic Laboratories, Inc; host or cells: rat brain without cerebellum, membranes
T2 sequence (P31652 whole entry): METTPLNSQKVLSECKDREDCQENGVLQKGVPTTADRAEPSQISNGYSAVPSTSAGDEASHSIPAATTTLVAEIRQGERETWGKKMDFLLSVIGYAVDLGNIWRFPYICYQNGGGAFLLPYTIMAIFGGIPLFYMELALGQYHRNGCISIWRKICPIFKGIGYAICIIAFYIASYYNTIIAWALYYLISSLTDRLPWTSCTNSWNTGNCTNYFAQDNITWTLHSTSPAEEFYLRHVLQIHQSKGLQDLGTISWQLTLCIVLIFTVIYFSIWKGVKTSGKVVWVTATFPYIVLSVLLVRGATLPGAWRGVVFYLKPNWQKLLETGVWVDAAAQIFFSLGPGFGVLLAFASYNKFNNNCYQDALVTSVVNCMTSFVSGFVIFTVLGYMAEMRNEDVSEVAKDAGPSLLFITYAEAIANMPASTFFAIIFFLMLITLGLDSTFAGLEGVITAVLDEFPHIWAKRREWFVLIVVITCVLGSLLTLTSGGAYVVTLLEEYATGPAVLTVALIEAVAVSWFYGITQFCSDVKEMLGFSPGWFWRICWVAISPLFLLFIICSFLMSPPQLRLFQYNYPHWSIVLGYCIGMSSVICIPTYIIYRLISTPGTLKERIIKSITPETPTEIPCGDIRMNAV
The experiment in a line: Rat brain SERT binding ([3H]-citalopram displacement). Conditions: rat brain membranes without cerebellum, 0.6 nM [3H]-citalopram, 60 min at 25° C. The method, then: The supernatant was removed and re-centrifuged at 15,000 rpm for 30 min. […] Membranes were incubated with 0.6 nM [^3H]-Citalopram plus/minus test compounds for 60 min at 25° C. and harvested by rapid filtration over GF/C glass fiber filters (pretreated with 0.3% polyethylenimine) followed by four washes with ice-cold buffer.

Experiment [2] has as its target T1, human H3 receptor. Put plainly: Cyclic AMP accumulation (β-galactosidase reporter, Schild analysis). The experiment is classed as cell-based. Conditions: SK-N-MC cells expressing human H3 receptor and CRE-β-galactosidase reporter; histamine agonist, forskolin 5 μM; Schild regression of pEC50 values; read-out: pA2 (converted). The method, then:
Sublines of SK-N-MC cells were created that expressed a reporter construct and the human H3 receptor. The reporter gene (β-galactosidase) is under the control of multiple cyclic AMP responsive elements. In 96-well plates, histamine was added directly to the cell media followed 5 min later by an addition of forskolin (5 μM final concentration). When appropriate, antagonists were added 10 min prior to agonist addition. After a 6-h incubation at 37° C., the media was aspirated and the cells washed with 200 μL of phosphate-buffered saline followed by a second aspiration. Cells were lysed with 25 μL 0.1× assay buffer (10 mM Na-phosphate, pH 8, 0.2 mM MgSO4, 0.01 mM MnCl2) and incubated at rt for 10 min. […] Color was developed using 25 μL of 1 mg/mL substrate solution (chlorophenolred β-D galactopyranoside; Roche Molecular Biochemicals, Indianapolis, In.).

The target in the next experiment is T3, human SERT (Homo sapiens, UniProt P31645).
T3 construct: expressed in transfected cells; host or cells: HEK293 membranes
T3 sequence (P31645 whole entry): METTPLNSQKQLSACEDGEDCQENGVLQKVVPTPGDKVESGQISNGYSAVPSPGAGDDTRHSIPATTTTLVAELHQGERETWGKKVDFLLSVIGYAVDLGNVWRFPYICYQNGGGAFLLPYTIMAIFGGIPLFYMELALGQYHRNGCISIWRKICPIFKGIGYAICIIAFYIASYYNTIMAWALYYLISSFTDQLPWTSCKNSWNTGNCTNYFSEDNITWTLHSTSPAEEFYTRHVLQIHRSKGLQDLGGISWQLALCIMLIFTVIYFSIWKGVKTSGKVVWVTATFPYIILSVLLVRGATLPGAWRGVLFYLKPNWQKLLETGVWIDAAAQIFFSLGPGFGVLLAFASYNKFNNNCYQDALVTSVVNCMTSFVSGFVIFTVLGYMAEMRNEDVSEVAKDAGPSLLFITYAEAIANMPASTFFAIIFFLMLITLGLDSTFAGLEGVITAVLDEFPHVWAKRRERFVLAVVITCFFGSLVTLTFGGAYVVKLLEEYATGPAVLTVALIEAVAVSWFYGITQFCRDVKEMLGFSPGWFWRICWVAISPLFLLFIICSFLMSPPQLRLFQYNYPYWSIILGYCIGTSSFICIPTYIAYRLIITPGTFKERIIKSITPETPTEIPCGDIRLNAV
Put plainly: Human SERT binding (3H-citalopram displacement). Conditions: HEK293 membranes expressing human SERT, rt 1 h. As for the experimental part: Homogenized HEK293 (Human Embryonic Kidney) membranes expressing the human SERT were incubated with ^3H-citalopram (SERT) at rt for 1 h in 50 mM Tris, 120 mM NaCl, 5 mM KCl (pH 7.4). […] The membranes were washed and the radioactivity was counted as above.

Structures are written as SMILES. Like-named read-outs stand apart in the source and are kept apart here.

T1 sequence (Q9Y5N1 whole entry): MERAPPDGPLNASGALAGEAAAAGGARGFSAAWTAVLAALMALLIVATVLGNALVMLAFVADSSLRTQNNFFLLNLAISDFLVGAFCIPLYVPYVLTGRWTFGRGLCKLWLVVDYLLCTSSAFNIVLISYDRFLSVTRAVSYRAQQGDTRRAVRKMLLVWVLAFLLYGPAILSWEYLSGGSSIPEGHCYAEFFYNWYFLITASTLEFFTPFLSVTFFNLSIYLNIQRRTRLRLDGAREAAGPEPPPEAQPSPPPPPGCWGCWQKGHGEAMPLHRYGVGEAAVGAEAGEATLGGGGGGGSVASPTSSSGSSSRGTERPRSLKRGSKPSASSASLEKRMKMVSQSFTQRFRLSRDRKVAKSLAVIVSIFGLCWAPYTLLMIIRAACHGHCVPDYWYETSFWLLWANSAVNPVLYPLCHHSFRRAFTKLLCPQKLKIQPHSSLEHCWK

Consider `CSc1ccc(C2CN(C)Cc3cc(OCC4CN(C5CCC5)C4)ccc32)cc1` (stereo not drawn) [Example 238, 7-(1-Cyclobutyl-azetidin-3-ylmethoxy)-2-methyl-4-(4-methylsulfanyl-phenyl)-1,2,3,4-tetrahydro-isoquinoline], for which the Ki was determined as 5 nM at human H3 receptor [1] and 4 nM on Rat SERT (read-out: Rat SERT Ki). For the same molecule, the Kb at human H3 receptor [2] is 12.6 nM.
Regarding `CSc1ccc(C2CN(C)Cc3cc(OCC4CN(C5CC5)CCO4)ccc32)cc1` (mixture of isomers) [Example 263, 7-(4-Cyclopropyl-morpholin-2-ylmethoxy)-2-methyl-4-(4-methylsulfanyl-phenyl)-1,2,3,4-tetrahydro-isoquinoline], the Ki at human H3 receptor [1] and on Rat SERT (read-out: Rat SERT Ki) was 11 nM each time. Also, the Kb on human H3 receptor [2] is 7.94 nM.
With `COc1ccc(C2CN(C)Cc3cc(OCCCN4CCCCC4)c(C)cc32)cc1` (stereo not drawn) [Example 265, 4-(4-Methoxy-phenyl)-2,6-dimethyl-7-(3-piperidin-1-yl-propoxy)-1,2,3,4-tetrahydro-isoquinoline], the values for the Ki at human H3 receptor [1] and at Rat SERT (read-out: Rat SERT Ki) were 2 nM and 13 nM, respectively. Moreover, the Kb on human H3 receptor [2] is 1.58 nM.
For `CSc1ccc(C2CN(C)Cc3cc(OCC4CN(C(C)C)CCO4)ccc32)cc1` (mixture of isomers) [Example 262, 7-(4-Isopropyl-morpholin-2-ylmethoxy)-2-methyl-4-(4-methylsulfanyl-phenyl)-1,2,3,4-tetrahydro-isoquinoline], the Ki is 10 nM at human H3 receptor [1] and 5 nM at Rat SERT (read-out: Rat SERT Ki). In addition, the Kb on human H3 receptor [2] was 6.31 nM.
`COc1ccc(C2CN(C)Cc3cc(OC[C@@H]4CN(C5CC5)CCO4)ccc32)cc1` (single isomer, unassigned) [Example 260A, 7-(4-Cyclopropyl-morpholin-2S-ylmethoxy)-4-(4-methoxy-phenyl)-2-methyl-1,2,3,4-tetrahydro-isoquinoline]: the Ki on human H3 receptor [1] was determined as 2 nM; at Rat SERT (read-out: Rat SERT Ki), 17 nM. Besides, the Kb at human H3 receptor [2] was 1 nM.
Turning to `CN1Cc2cc(OCCCN3CCOCC3)ccc2C(c2ccc([S+](C)[O-])cc2)C1` (single isomer, unassigned) [Example 165A, 4-(4-Methanesulfinyl-phenyl)-2-methyl-7-(3-morpholin-4-yl-propoxy)-1,2,3,4-tetrahydro-isoquinoline], the Ki at human H3 receptor [1] came to 2 nM; on Rat SERT (read-out: Rat SERT Ki), 91 nM. The Kb at human H3 receptor [2] was 3.16 nM.
Consider `COc1ccc(C2CN(C3CC3)Cc3cc(OCCCN4CCCCC4)ccc32)cc1` (stereo not drawn) [Example 73, 2-Cyclopropyl-4-(4-methoxy-phenyl)-7-(3-piperidin-1-yl-propoxy)-1,2,3,4-tetrahydro-isoquinoline], for which the Ki on human H3 receptor [1] worked out at 2 nM; on Rat SERT (read-out: Rat SERT Ki), 83 nM. In addition, the Kb on human H3 receptor [2] was 1 nM.
For the molecule `COc1ccc(C2CN(C)Cc3cc(OC[C@H]4CN(C(C)C)CCO4)ccc32)cc1` (single isomer, unassigned) [Example 256A, 7-(4-Isopropyl-morpholin-2R-ylmethoxy)-4-(4-methoxy-phenyl)-2-methyl-1,2,3,4-tetrahydro-isoquinoline], the Ki on human H3 receptor [1] stood at 7 nM; at Rat SERT (read-out: Rat SERT Ki), 12 nM. Moreover, at human H3 receptor [2], the Kb was 5.01 nM.
`CN1Cc2cc(OCCCN3CCC(F)CC3)ccc2C(c2ccc(Br)cc2)C1` (stereo not drawn) [Example 213, 4-(4-Bromo-phenyl)-7-[3-(4-fluoro-piperidin-1-yl)-propoxy]-2-methyl-1,2,3,4-tetrahydro-isoquinoline]: the inhibitory constant (Ki) at human H3 receptor [1] turned out to be 11 nM; on Rat SERT (read-out: Rat SERT Ki), 6 nM. At human H3 receptor [2], the Kb is 10 nM.
`CN1Cc2cc(OCCCN3CCC(F)CC3)ccc2C(c2ccc(Cl)cc2)C1` (stereo not drawn) [Example 47, 4-(4-Chloro-phenyl)-7-[3-(4-fluoro-piperidin-1-yl)-propoxy]-2-methyl-1,2,3,4-tetrahydro-isoquinoline]: the Ki on human H3 receptor [1] amounted to 10 nM; at Rat SERT (read-out: Rat SERT Ki), 27 nM; at human SERT, 11 nM.
Turning to `COc1ccc(C2CN(C)Cc3cc(OCCCN4CCCC4C)ccc32)cc1` (stereo not drawn) [Example 35, 4-(4-Methoxy-phenyl)-2-methyl-7-[3-(2-methyl-pyrrolidin-1-yl)-propoxy]-1,2,3,4-tetrahydro-isoquinoline], the Ki was 1 nM at human H3 receptor [1], 2 nM on Rat SERT (Rat SERT Ki (nM)) and 3 nM at human SERT.
`COc1ccc(C2CN(C)Cc3cc(OCCCN4CCN(c5ccncc5)CC4)ccc32)cc1` (stereo not drawn) [Example 204, 4-(4-Methoxy-phenyl)-2-methyl-7-[3-(4-pyridin-4-yl-piperazin-1-yl)-propoxy]-1,2,3,4-tetrahydro-isoquinoline]: the inhibition constant (Ki) on human H3 receptor [1] was found to be 2 nM; at Rat SERT (read-out: Rat SERT Ki) it was 10 nM; on human SERT, 5 nM.
The matching figures for `COc1ccc(C2CN(C)Cc3cc(OCCCN4CCOC[C@@H]4C)ccc32)c(F)c1` (stereo partly drawn) [Example 220, 4-(2-Fluoro-4-methoxy-phenyl)-2-methyl-7-[3-(3S-methyl-morpholin-4-yl)-propoxy]-1,2,3,4-tetrahydro-isoquinoline]: 6 nM, 4 nM and 12 nM.
Turning to `CSc1ccc(C2CN(C)Cc3cc(OC4CCN(C(C)C)CC4)ccc32)cc1` (stereo not drawn) [Example 118, 7-(1-Isopropyl-piperidin-4-yloxy)-2-methyl-4-(4-methylsulfanyl-phenyl)-1,2,3,4-tetrahydro-isoquinoline], the Ki turned out to be 1 nM at human H3 receptor [1], 8 nM on Rat SERT (read-out: Rat SERT Ki) and 4 nM on human SERT.
For `COc1ccc(C2CN(C)Cc3cc(C#CCCN4CCOCC4)ccc32)cc1` (stereo not drawn) [Example 276, 4-(4-Methoxy-phenyl)-2-methyl-7-(4-morpholin-4-yl-but-1-ynyl)-1,2,3,4-tetrahydro-isoquinoline], the values for the Ki on human H3 receptor [1], at Rat SERT (read-out: Rat SERT Ki) and at human SERT were 86 nM, 18 nM and 9 nM, respectively.
Take `COc1ccc(C2CN(C)Cc3cc(OCC4CN(C5CC5)CCO4)ccc32)cc1` (mixture of isomers) [Example 259, 7-(4-Cyclopropyl-morpholin-2-ylmethoxy)-4-(4-methoxy-phenyl)-2-methyl-1,2,3,4-tetrahydro-isoquinoline]: the Ki on human H3 receptor [1] turned out to be 13 nM; on Rat SERT (read-out: Rat SERT Ki), 13 nM; on human SERT it was 22 nM.
For the molecule `CCN1CCN(CCCOc2ccc3c(c2)CN(C)CC3c2ccc(OC)cc2)CC1` (stereo not drawn) [Example 198, 7-[3-(4-Ethyl-piperazin-1-yl)-propoxy]-4-(4-methoxy-phenyl)-2-methyl-1,2,3,4-tetrahydro-isoquinoline], the inhibition constant (Ki) at human H3 receptor [1] was determined as 10 nM; at Rat SERT (read-out: Rat SERT Ki), 2 nM; on human SERT, 2 nM.
Regarding `COc1ccc(C2CN(C)Cc3cc(OCCCN4CCC(F)(F)C4)ccc32)cc1` (stereo not drawn) [Example 129, 7-[3-(3,3-Difluoro-pyrrolidin-1-yl)-propoxy]-4-(4-methoxy-phenyl)-2-methyl-1,2,3,4-tetrahydro-isoquinoline], the results for the Ki on human H3 receptor [1], at Rat SERT (read-out: Rat SERT Ki) and at human SERT were 14 nM, 7 nM and 5 nM, respectively.
As for `COc1ccc(C2CN(C)Cc3cc(OCCCN4CCN(C(=O)C(C)C)CC4)ccc32)cc1` (stereo not drawn) [Example 5, 1-(4-{3-[4-(4-Methoxy-phenyl)-2-methyl-1,2,3,4-tetrahydro-isoquinolin-7-yloxy]-propyl}-piperazin-1-yl)-2-methyl-propan-1-one], the Ki at human H3 receptor [1] came to 594 nM; at Rat SERT (read-out: Rat SERT Ki), 27 nM; on human SERT, 18 nM.
In the case of `COc1ccc(C2CN(C)Cc3cc(CCCCN4CCOCC4)ccc32)cc1` (stereo not drawn) [Example 281, 4-(4-Methoxy-phenyl)-2-methyl-7-(4-morpholin-4-yl-butyl)-1,2,3,4-tetrahydro-isoquinoline], the figures for the inhibition constant Ki at human H3 receptor [1], at Rat SERT (read-out: Rat SERT Ki) and at human SERT were 23 nM, 6 nM and 8 nM, respectively.
Take `COc1ccc(C2CN(C)Cc3cc(OCCCN4CCN(C(C)=O)CC4)ccc32)cc1` (stereo not drawn) [Example 2, 1-(4-{3-[4-(4-Methoxy-phenyl)-2-methyl-1,2,3,4-tetrahydro-isoquinolin-7-yloxy]-propyl}-piperazin-1-yl)-ethanone]: the figures for the inhibition constant Ki on human H3 receptor [1], at Rat SERT (read-out: Rat SERT Ki) and at human SERT were 70 nM, 13 nM and 56 nM, respectively.
As to `COCCN(CCCOc1ccc2c(c1)CN(C)CC2c1ccc(OC)cc1)CCOC` (stereo not drawn) [Example 17, Bis-(2-methoxy-ethyl)-{3-[4-(4-methoxy-phenyl)-2-methyl-1,2,3,4-tetrahydro-isoquinolin-7-yloxy]-propyl}-amine], the Ki on human H3 receptor [1] stood at 273 nM; on Rat SERT (read-out: Rat SERT Ki), 10 nM; at human SERT, 7 nM.

For the origin of these results see patent publication US20060194837A1, “Tetrahydroisoquinoline compounds” (priority 2004, published 2006).
